# Test results reported in article PMC10326281, “Insights into the mechanisms governing P01 scorpion toxin effect against U87 glioblastoma cells oncogenesis” (Frontiers in Pharmacology, 2023).
# Where a SMILES comes first, the peptide text is derived from it. Bridges are numbered along the chain shown (N, C = ends).
# Legend:
# U87 glioblastoma cells = experiment: Cell viability (MTT), U87; format: cell-based, human; details: 25–200 μg/mL, 24 h, 10,000 cells per well, n = 3
# Source text: (§1) The ATCC (American Type Culture Collection, Rockville, MD, United States) cancer cell lines U87 (glioblastoma), MDA-MB231 (breast cancer) and LS174 (colon adenocarcinoma) were routinely cultured in DMEM supplemented with 10% fœtal bovine serum (FBS), 1% l-glutamine and 100 IU/mL penicillin/streptomycin. […] Rat SK2 cDNA cloned into pJA5 plasmid was a gift from Dr. Skolnik (university Langone Medical center, New York). Human SK3 cDNA cloned into Pipru vector was a king gift from Pr. Soriani (Université Côte d’Azur, CNRS, Inserm, Nice, France).
# (§2) The human cell lines U87, MDA-MB231, or LS174 (10,000 cells per well) were treated with P01 peptide at different concentrations (25; 50; 100 and 200 μg/mL). After 24 h, the wells were washed with phosphate-buffered saline (PBS) and then the 3-(4,5-dimethylthiazol-2-yl)-2,5-diphenyltetrazolium bromide (MTT) (0.5 mg/mL) was added to the cells as previously described ([Kouba et al., 2020]). The crystals formed after the reduction of MTT by mitochondrial dehydrogenases were dissolved with dimethylsulfoxyde (DMSO). The quantification of live cells was achieved by measuring absorbance at 560 nm using a spectrophotometer (Thermo-Multiskan EX, Shanghai, China).
# [1] = test system: LS174 colon adenocarcinoma cells; experiment: Cell viability (MTT), LS174; format: cell-based, human; details: 25–200 μg/mL, 24 h, 10,000 cells per well, n = 3
# Source text: as §1, §2
# [2] = test system: MDA-MB231 breast cancer cells; experiment: Cell proliferation test (crystal violet), MDA-MB231; format: cell-based, human; details: 2–10 μg/mL, 72 h, n = 3
# Source text: as §1
# (§3) The effect of the P01 peptide on cell proliferation was studied. The human cell lines U87, MDA-MB231 or LS174 (5,000 cells per well) were treated with 2; 5 and 10 μg/mL of P01 peptide. The plates were placed at 37°C for 72 h. Cellular proliferation was quantified at 560 nm by a spectrophotometer (Thermo-Multiskan EX, Shanghai, China) after treatment with 1% glutaraldehyde and staining with 0.1% crystal violet.
# (§4) Every 24 h, a series of wells was washed with PBS, the cells were fixed with 1% glutaraldehyde, and preserved in PBS to follow the kinetics of proliferation. After 72 h, the cells were stained with crystal violet 0.1% and quantified by measuring the absorbance at 560 nm using a spectrophotometer (Thermo-Multiskan EX, Shanghai, China).
# [3] = test system: LS174 colon adenocarcinoma cells; experiment: Cell proliferation test (crystal violet), LS174; format: cell-based, human; details: 2–10 μg/mL, 72 h, n = 3
# Source text: as §1, §3, §4
# [4] = test system: MDA-MB231 breast cancer cells; experiment: Cell adhesion assay, MDA-MB231; format: cell-based, human; details: data not shown
# Source text: as §1
# (§5) Adhesion assays were performed as previously described by ([Sarray et al., 2007]). Glioblastoma U87 cells in suspension (10^6 cells/mL) were treated with 50 μg/mL of P01 and deposited on wells coated with purified extracellular matrix (ECM): Fg at 50 μg/mL; Fn at 10 μg/mL; Coll-I at 50 μg/mL; laminin (Lam) at 15 μg/mL or poly-L-lysine (PL) at 20 μg/mL for U87. MDA-MB231 and LS174 cells were also used in their adequate ECM: Fg and Coll-I respectively. They were incubated to adhere to the substrate for 2 h or 24 h at 37°C. After washing, attached cells were fixed, stained by 0.1% crystal violet, lysed with 1% SDS and quantified by measuring absorbance at 560 nm. The specific adhesion is obtained by subtracting the absorbance obtained in the absence of adhesion substrate (no specific control). […]
# [5] = test system: LS174 colon adenocarcinoma cells; experiment: Cell adhesion assay, LS174; format: cell-based, human; details: data not shown
# Source text: as §1, §5
# α1β1 integrin = experiment: U87 cell adhesion in presence of anti-integrin antibodies, α1β1; format: cell-based, human; details: 50 μg/mL P01, 30 min pre-incubation, 2 h at 37°C, anti-α1β1 (1/200), n = 3
# Procedure: (§6) To study the implication of integrins in the P01 peptide activity, adhesion assays using anti-integrin blocking antibodies: anti- α1β1 (1/200), anti- αvβ3 (1/200), anti- α5 (1/200) and anti- β3 (1/200) were performed as described above, except that cells were pretreated with the active peptide P01 at 50 μg/mL.
# α5 integrin = experiment: U87 cell adhesion in presence of anti-integrin antibodies, α5; format: cell-based, human; details: 50 μg/mL P01, 30 min pre-incubation, 2 h at 37°C, anti-α5 (1/200), n = 3
# Procedure: as §6
# β3 integrin = experiment: U87 cell adhesion in presence of anti-integrin antibodies, β3; format: cell-based, human; details: 50 μg/mL P01, 30 min pre-incubation, 2 h at 37°C, anti-β3 (1/200), n = 3
# Procedure: as §6
# human SK3 channel = experiment: Whole-cell patch clamp, human SK3 in HEK293T cells; format: cell-based; details: human SK3 in HEK cells, currents recorded at 0 mV, pCa 6
# Source text: as §1
# HEK293T-hSK3 and HEK293-rSK2 cells were selected using the puromycin and neomycin resistance gene respectively. HEK cells were routinely cultured in DMEM supplemented with 5% FBS and 1% l-glutamine. All cell lines were maintained at 37°C in a humid atmosphere of 5% CO2 in air.
# Experiments were performed with cells seeded into 35-mm Petri dishes at 3,000 to 6,000 cells per cm^2. All experiments were performed using the conventional whole-cell recording configuration of the patch-clamp technique ([Girault et al., 2011]). For HEK cells expressing SK2 or SK3 channels, voltages clamp ramp protocols were used with a duration of 2 s, with varying voltages - 100 to +100 mV, with a holding potential of 0 mV. […] Also, at 0 mV, the membrane potential currents will be recorded mainly K^+ currents and not Cl^− currents.
structure (smiles),measurement,setting,value
"CC[C@H](C)[C@H](NC(=O)[C@@H]1CCCN1C(=O)[C@H](CCC(=O)O)NC(=O)[C@@H]1CSSC[C@@H]2NC(=O)[C@H](Cc3c[nH]cn3)NC(=O)[C@H](CCC(=O)O)NC(=O)[C@@H]3CCCN3C(=O)[C@@H]3CSSC[C@H](NC(=O)[C@H](CCCCN)NC(=O)[C@H](CC(=O)O)NC(=O)[C@H](CC(N)=O)NC(=O)[C@H](CC(=O)O)NC(=O)[C@H](CSSC[C@H](NC(=O)[C@H](CO)NC(=O)[C@@H](N)C(C)C)C(=O)N[C@@H](CCC(=O)O)C(=O)N[C@@H](CC(=O)O)C(=O)N3)NC(=O)[C@H](CCCCN)NC(=O)[C@H](C)NC(=O)[C@H](CCC(N)=O)NC(=O)[C@H](C)NC(=O)[C@H](CCCCN)NC(=O)[C@H](CCC(N)=O)NC(=O)[C@H]([C@@H](C)O)NC(=O)[C@H](CO)NC2=O)C(=O)N[C@@H](C(C)C)C(=O)N1)C(=O)O [P01] (H-VSCEDCPEHCSTQKAQAKCDNDKCVCEPI-OH; disulfide 3-19, 6-24, 10-26 (inferred); N-terminus and C-terminus assumed)",cytotoxic effect (cell viability),U87 glioblastoma cells,did not have a cytotoxic effect
same,cytotoxic effect (cell viability),[1],did not have a cytotoxic effect
same,effect on cell proliferation,[2],no effect
same,effect on cell proliferation,[3],no effect
same,effect on adhesion,[4],not affected
same,effect on adhesion,[5],not affected
same,effect on adhesive function of α1β1,α1β1 integrin,reduced the adhesive function
same,effect on adhesive function of α5,α5 integrin,reduced the adhesive function
same,effect on cell adhesion through β3,β3 integrin,not able to alter cell adhesion
same,effect on SK3 current,human SK3 channel,no effect
